US7183430B2, “Compounds which can block the response to chemical substances or thermal stimuli or mediators of inflammation of nociceptors, production method thereof and compositions containing same” (Diverdrugs, S.L., priority 2002, dated 2007)

Tests used:
[1] = 52° C. hot plate nociception test; assay type: in vivo; details: mice, 10 mg/Kg intraperitoneal, carrier 11.5±2 s
Experimental: A 52° C. hot plate test was used as a nociception test, where the latency time to paw withdrawal or jump of the animal was monitored. The compounds were intraperitoneally administered to mice at a dose of 10 mg/Kg. The behavioral test was carried out at 30, 60 and 120 minutes after the administration of the compounds.

[2] = acute inflammatory pain model caused by subcutaneous capsaicin (paw lick latency); assay type: in vivo; details: mice, intraperitoneal; for behavioral latency time (paw lick): carrier 20±5 s
Experimental: The analgesic activity of the products was determined by assessing their effect in the acute inflammatory pain model caused by subcutaneous administration of the capsaicin irritant. Administration of this vanilloid causes a neurogenic inflammation in animals with acute painful burning sensation resulting in thermal and mechanical hyperalgesia. The behavioral latency time to paw lick after intraperitoneal administration of the compounds to mice at different doses was monitored.

[3] = system: afferent nerve fibers from the knee of the rat; assay: nervous activity caused by capsaicin in afferent nerve fibers from the knee
[4] = system: primary trigeminal neuronal cultures; assay: entrance of calcium cation stimulated by capsaicin in neuronal cultures; assay type: cell-based

Q: With N=C(N)NCCC[C@H](N)C(=O)N(CCc1ccc(Cl)cc1Cl)CC(=O)N(CCc1ccc(Cl)cc1Cl)CC(N)=O [Example 1] as the compound, how does the “latency to the first response (paw withdrawal or jump)” value (from here on “latency to the first response”) ([1]; 30 minutes after) read?
A: The value was 20 ± 4 s.

Q: And the “latency to the first response” value ([1]; 60 minutes after)?
A: Its value is 18 ± 3 s.

Q: What about the “latency to the first response” value ([1]; 120 minutes after) of the same compound?
A: Its value is 18 ± 4 s.

Q: And the “behavioral latency time (paw lick)” value ([2]; 2 mg/Kg)?
A: Its value is 90 ± 10 s.

Q: What about the “behavioral latency time (paw lick)” value ([2]; 5 mg/Kg) of the same compound?
A: Its value is 190 ± 50 s.

Q: What about the “behavioral latency time (paw lick)” value ([2]; 10 mg/Kg) of the same compound?
A: Its value is 250 ± 40 s.

Q: And the “duration of the behavioral response” value ([2]; 2 to 10 mg/Kg)?
A: Its value is “decreased as the dose of the compound increased”.

Q: What about the “block of the nervous activity caused by capsaicin” value [3] of the same compound?
A: The value was 80%.

Q: And the “inhibition of the entrance of calcium cation stimulated by capsaicin” value [4]?
A: Its value is 85%.
